From US20250207173A1, “REPORTER CELL FOR ASSESSING DDX3 HELICASE ACTIVITY” (Nanyang Technological University, priority 2023, published 2025)
Entries after “also recorded” stand apart in the source; their conditions may differ.

Tests used:
DDX3 = test: ICD-Helicase luciferase reporter assay (Rac1-FLuc / DvL2-FLuc reporter plasmids) in 293T cells; assay type: cell-based, human; settings: for luciferase (luminescent) signals of Rac1-FLuc or DvL2-FLuc reporter cells: 293T cells transfected with Rac1-FLuc or DvL2-FLuc reporter plasmids, RK-33 0.5 to 2 μM vs vehicle (DMSO), cycloheximide as inhibitory control
Experimental: A total of 1.2×10^5 sgCTL or sgDDX3X reporter cells (Rac1-FLuc or DvL2-FLuc) were seeded into wells of a 24-well plate to allow cells to adhere for 24 h. Cells were pre-treated with increasing concentrations of a non-specific DDX3 inhibitor, RK-33 (0.5 μM, 1 μM, or 2 μM) for 3 h before transiently expressing the reporter plasmids into sgCTL and sgDDX3X cells for 16 h. Half of the cells were lysed in 1× cell culture lysis buffer (Promega #E1500) and bioluminescence was measured on a white bottom 96-well plate using luciferase assay system (Promega #E4030) by performing 2 sec measurement delay followed by a 10 sec measurement read. The remaining half of the cells were processed on flow-cytometry to determine the percentage of AcGFP^+ cells, to account for variation in transfection efficiency. […] Cycloheximide was used as a positive control for translational inhibition. Data represent three independent experiments and values in the bars are mean±SEM. *, p<0.05; ****, p<0.0001; ns, non-significant.
Cell transfection: 293T cells were seeded in 12 well plate (1.5×10^5 cells per well) a day prior to transfection. Cells were transfected with 1 μg of plasmids using Lipofectamine 2000 (ThermoFisher Scientific #11668019) as per manufacturer's recommendations.
Luciferase assay: Cells were lysed in luciferase cell culture lysis buffer (Promega #E1500) before measuring bioluminescence in a clear bottom 96-well plate using luciferase assay system (Promega #E4030) as per manufacturer's instructions. Relative luciferase activity was determined by subtracting luminescence values to blank and normalizing to untreated samples. Cycloheximide (Sigma #01810) was used as a positive control for translation inhibition at 1 μg/mL and RK-33 (Selleck #S8246) was used as a positive control for chemical inhibition of DDX3 at 3 μM.
The helicase function of the DDX3X and DDX3Y proteins regulates mRNA translation by unwinding of the complex 5′ untranslated region (5′-UTR) secondary structure. Two unique 5′-UTR structures were designed, Rac1 5′-UTR and DvL2 5′-UTR (i.e. short DVL2), known to be regulated by DDX3X and DDX3Y. The 5′-UTR segments were placed upstream of the luciferase gene (from the firefly Photinus pyralis) driven by a constitutively active human cytomegalovirus promoter (FIG. 1A-E). Luciferase emits bioluminescence signals proportional to its levels of expression, which served as a readout for helicase unwinding activity in ICD-Helicase assays. The reporter plasmids (Rac1-Fluc or DvL2-Fluc) were then transiently transfected into 293T cells. A transfection efficiency of more than 80% was obtained in all the experiments (FIG. 2). The selection of this cell line was for three main reasons. […] Second, 293T cells can tolerate knock-out (KO) or nearly complete knock-down of DDX3X expression. […]

293T cells [1] = test: Annexin V-FITC apoptosis/cell death assay; assay type: cell-based, human; settings: RK-33 treatment
Experimental: (§1) Staurosporine (STS) was used as a positive kill control. […] Cells were treated with STS as a kill control. Bar chart represents mean±SEM of 3 independent experiments.

293T cells [2] = test: MTS-based viability assay of reporter cells; assay type: cell-based; settings: 293T reporter cells (sgCTL and sgDDX3X); RK-33 0.5, 1 or 2 μM; normalized against vehicle (DMSO)
Experimental: as §1

For `C[C@@H]1C[C@@H]([C@H](O)CC2CC(=O)NC(=O)C2)C(=O)[C@@H](C)C1` [cycloheximide], the “luciferase (luminescent) signals of Rac1-FLuc or DvL2-FLuc reporter cells” value (DDX3) was “significantly inhibited”.
For RK-33, the “induction of apoptosis/cell death” value (293T cells [1]) was “no major change in cell viability or induction of apoptosis/cell death”, the cell viability (293T cells [2]) was “no major change in cell viability” and the “luciferase (luminescent) signals of Rac1-FLuc or DvL2-FLuc reporter cells” value (DDX3) was “significantly inhibited; also recorded: dose-dependently inhibited”. The luciferase activity (DDX3; sgCTL 293T cells with normal endogenous DDX3, RK-33 0.5, 1 or 2 μM, 3 h pre-treatment) was “dose-dependent reduction in luciferase activity” and the “luciferase activity (response to inhibitor)” value (DDX3; sgDDX3X (DDX3X knock-out) 293T cells expressing Rac1-FLuc or DvL2-FLuc construct, RK-33 0.5, 1 or 2 μM) was “did not respond”.
